Results as given in patent US5610282A (The United States of America as represented by the …, priority 1995, dated 1997).

Biological target: T1, D1 dopamine receptor (Rattus norvegicus, UniProt P18901)
T1 construct: The longest open reading frame in this cDNA codes for a 487 residue protein; expressed in transfected cells; host or cells: COS-7 cells (transient, plasmid pSRalpha-D1)
Type: cell-based
Conditions: agonist 1 uM, with 0.5 uM propranolol

T1 sequence (P18901 whole entry): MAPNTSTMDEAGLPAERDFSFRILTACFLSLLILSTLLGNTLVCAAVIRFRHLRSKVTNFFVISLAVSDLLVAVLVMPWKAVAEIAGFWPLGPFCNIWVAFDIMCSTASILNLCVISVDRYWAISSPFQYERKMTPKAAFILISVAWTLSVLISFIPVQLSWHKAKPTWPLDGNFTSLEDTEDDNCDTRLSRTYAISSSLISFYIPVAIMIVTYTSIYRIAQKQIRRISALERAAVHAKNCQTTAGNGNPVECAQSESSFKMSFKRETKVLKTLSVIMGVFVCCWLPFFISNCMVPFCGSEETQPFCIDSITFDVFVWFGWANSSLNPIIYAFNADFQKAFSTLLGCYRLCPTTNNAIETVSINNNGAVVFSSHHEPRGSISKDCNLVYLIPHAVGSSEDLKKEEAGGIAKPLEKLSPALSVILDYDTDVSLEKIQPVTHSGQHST

SMILES	stimulation of cAMP accumulation (in words)
Oc1cc2c(cc1O)C(c1ccccc1)CNCC2 (stereo not drawn) [SKF-38393 (-)isomer, SKF-38393]	lower potency
CNC[C@H](O)c1ccc(O)c(O)c1 [epinephrine]	low potency relative to dopamine
